Patent US9714244B2, “Substituted pyrido[4,3-d]pyrimidines as Wee-1 inhibitors” (ALMAC DISCOVERY LIMITED, priority 2013, dated 2017)

Experiments:
[1] = CLint estimates using human liver microsomes; format: in vitro ADME; settings: pH 7.4, read-out: HLM activity (HLM CLint)
Description: Method for the Determination of CLint Estimates Using Human Liver Microsomes
Test compounds (final concentration=1 μM; final DMSO concentration=0.1%) were incubated in 0.1M phosphate buffer pH 7.4 with human liver microsomes (0.5 mg of protein/mL) at 37° C. Reactions were started by addition of NADPH in 0.1M phosphate buffer pH 7.4 (final concentration 1 mM). 40 μL aliquots were removed at 2, 5, 10, 15, 20, 30, 40 and 50 min. Reactions were quenched in 80 μL of ice-cold methanol. Samples were subsequently frozen overnight then centrifuged at 3500 rpm for 20 min at 4° C. The supernatants were removed and transferred into analytical plates and analysed by LC/MS/MS.
All samples were analysed on a Waters Acquity I-Class coupled to a Waters Xevo TQD mass spectrometer. A Waters BEH C18 2.1×50 mm 1.7 μm column was used and mobile phases were water and methanol containing 0.1% formic acid as modifier. Analysis was by multiple reaction monitoring and conditions were optimised for each test compound.
From a plot of ln peak area against time, the gradient of the line is determined. Subsequently, half-life and intrinsic clearance are calculated using the following equations.

[2] = target: Wee-1 kinase (Homo sapiens (Human), UniProt P30291); experiment: Measurement of Wee-1 kinase activity (ADP-Glo); format: biochemical; settings: read-out: Wee-1 IC50 activity
Description: Method 1: Measurement of Wee-1 kinase activity
In the measurement of Wee-1 activity, a commercial peptide Poly(Lys Tyr(4:1)) hydrobromide was purchased from Sigma Aldrich and used as the substrate. Activated Wee-1 kinase was purchased from Invitrogen (PV3817) and an ADP-Glo luminescent kit was purchased from Promega.
All reactions took place in […] volumes in reaction buffer containing 40 mM Tris-HCl and 20 mM magnesium chloride, supplemented with 0.1 mg/mL bovine serum albumin and 2 mM DTT. Compounds were serially diluted in buffer and 5 μL of each concentration pipetted into a white 384 well plate (Sigma Aldrich M6186). A 5 μL aliquot of the Wee-1 enzyme was added to each well and the plate centrifuged for 1 min to ensure mixing of the enzyme and inhibitor.
The plate was incubated at room temperature for 30 minutes before the addition of 2.0 μg/mL of substrate and 30 μM ATP in a 5 μL aliquot. The plate was centrifuged for one minute and incubated for 1 h at RT.
15 μL of ADP-Glo stop reagent was added to each well to quench the reaction and deplete unconverted ATP. The plate was incubated for a further 40 min in the dark at RT.
30 μL of ADP-Glo kinase detection reagent was added to each well, converting ADP to ATP, catalysing the generation of luciferin by luciferase. The plate was shaken for 1 min, and incubated in the dark for an additional hour.
Luminescence from each well was detected using the Biotek Synergy4 HD plate reader and the percentage inhibition of kinase activity calculated for each inhibitor tested. Positive (kinase only) and negative (no kinase) controls were added to each plate to ensure specific interaction of kinase and inhibitor. The IC50 concentration for each inhibitor was calculated by plotting the percentage kinase inhibition against concentration of inhibitor and the curve generated by non-linear regression fitting.

[3] = tested on: phospho-cdc2 (Tyr15) in HT-29 cells; experiment: Effect on phosphorylation of cdc2 at Tyr15 in HT-29 cells (PathScan ELISA); format: cell-based; settings: Homo sapiens, HT-29, 8 h; HT29 cells, eight hours incubation; read-out: HT29 pCDC2 activity
Description: Method 2: Determining the effect of compounds on the phosphorylation of cdc2 at Tyr15
The colorectal cancer cell lines HT-29 and HCT-116 were purchased from the ATCC and routinely maintained in McCoy's Medium (Invitrogen) supplemented with 10% Foetal Calf Serum.
The cells were trypsinised from their growing vessel and counted, 100 μL of cell suspension containing 6000 cells was pipetted into black 96 well Co-star plates and incubated overnight to allow adherence to the surface at a temperature of 37° C. and an atmosphere of 5% CO2. Test compounds were formulated in DMSO and diluted in foetal calf serum supplemented medium. Incubating medium was removed by aspiration and diluted drug supplemented medium added to each well.
The plate was returned to the incubator for an additional eight hours at 37° C. and an atmosphere of 5% CO2. Post incubation, the drug supplemented medium was aspirated from each well and the cells were washed once in ice-cold phosphate buffered saline (PBS). 100 μL of cell lysis buffer (Cell Signalling Technologies #9803) containing 20 mM Tris, 150 mM NaCl, 1 mM EDTA, 1 mM EGTA, 1% Triton-X100, 2.5 mM sodium pyrophosphate, 1 mM glycerophosphate, 1 mM Na3VO4 and 1 μg/mL leupeptin was added to each well of the 96 well plate and incubated at 4° C. for 30 min. The samples on the plate were snap frozen at −80° C. until required.
Immediately before the continuation of the assay, the sample plate was thawed and centrifuged at 4° C. for 10 min and the supernatant transferred to secondary tubes or 96 well plate.
Cell supernatant was mixed in a ratio of 1:1 with sample dilutent buffer and vortexed for one minute. 100 μL of diluted sample was pipetted into pre-coated plates containing a rabbit polyclonal antibody for phospho-cdc2 (Tyr15) (Cell Signalling Technologies PathScan kit #7176). The plate was sealed and incubated overnight at 4° C.
The plate seal was removed and the well contents aspirated, followed by 3×5 min washes with 200 μL of diluted wash buffer. Between each wash the plate was tapped firmly onto blotting paper to ensure the removal of all kit solution. 100 μL of kit detection antibody was added to each well and the plate re-sealed and incubated at 37° C. for 1 h. Post incubation the plate was washed and processed in a similar manner to that previously described.
100 μL of horseradish peroxidise-linked secondary antibody was added to each test well, the plate sealed and incubated for thirty minutes at 37° C. Post incubation, the plate was washed as previously stated, followed by the addition of 100 μL of 3,3′,5,5′ tetramethylbenzidine (TMB reagent). The plate was sealed and incubated at RT for 30 min.
100 μL of stop solution was added to each well and the underside of the plate wiped with a lint-free tissue, prior to spectrophotometric determination. Absorbance from each well was read at 450 nm within 30 min of the addition of the stop solution.
The percentage of phospho-cdc2 was calculated compared to DMSO control and plotted versus the concentration of inhibitor using GraphPad Prism. Data was fitted using non-linear regression analysis and IC50 values generated.

Wee-1 kinase, sequence (P30291 whole entry): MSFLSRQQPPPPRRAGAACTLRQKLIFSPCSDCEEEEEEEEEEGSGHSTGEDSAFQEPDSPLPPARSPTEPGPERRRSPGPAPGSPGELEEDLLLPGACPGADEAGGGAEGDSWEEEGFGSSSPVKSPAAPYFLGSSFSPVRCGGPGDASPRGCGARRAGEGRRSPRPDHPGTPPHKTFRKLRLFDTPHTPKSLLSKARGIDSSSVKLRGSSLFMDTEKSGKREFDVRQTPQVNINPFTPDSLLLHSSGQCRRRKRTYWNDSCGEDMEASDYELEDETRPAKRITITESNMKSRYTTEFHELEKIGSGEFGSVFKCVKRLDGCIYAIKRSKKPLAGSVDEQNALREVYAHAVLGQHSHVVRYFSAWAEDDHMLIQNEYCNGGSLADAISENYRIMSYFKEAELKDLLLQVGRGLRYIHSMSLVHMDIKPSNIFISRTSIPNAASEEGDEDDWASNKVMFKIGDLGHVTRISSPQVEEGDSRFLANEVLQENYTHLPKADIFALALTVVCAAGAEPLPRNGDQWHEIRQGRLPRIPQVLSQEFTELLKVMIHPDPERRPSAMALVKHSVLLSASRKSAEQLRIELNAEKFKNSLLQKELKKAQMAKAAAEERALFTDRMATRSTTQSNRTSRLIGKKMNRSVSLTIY

Structure (SMILES)	microsomal CLint at 1 μM [1]	IC50 [2]	IC50 [3]
O=c1c2cnc(Nc3ccc(N4CCNCC4)cc3)nc2ccn1-c1cccnc1Cl [Example 3, 6-(2-Chloropyridin-3-yl)-2-((4-(piperazin-1-yl)phenyl)amino)pyrido[4,3-d]pyrimidin-5(6H)-one]	≤ 20 µL/min/mg	> 200 nM	–
CC(=O)N1CCN(c2ccc(Nc3ncc4c(=O)n(-c5c(Cl)cccc5Cl)ccc4n3)cc2)CC1 [Example 5, 2-((4-(4-Acetylpiperazin-1-yl)phenyl)amino)-6-(2,6-dichlorophenyl)pyrido[4,3-d]pyrimidin-5(6H)-one]	≤ 20 µL/min/mg	10 to 200 nM	100 to 1000 nM
CN1CCN(c2ccc(Nc3ncc4c(=O)n(-c5c(Cl)cccc5Cl)ccc4n3)cc2)CC1 [Example 15, 6-(2,6-Dichlorophenyl)-2-((4-(4-methylpiperazin-1-yl)phenyl)amino)pyrido[4,3-d]pyrimidin-5(6H)-one]	> 20 µL/min/mg	–	100 to 1000 nM
CN1CCN(c2ccc(Nc3ncc4c(=O)n(-c5c(Cl)cccc5Cl)ccc4n3)cn2)CC1 [Example 31, 6-(2,6-Dichlorophenyl)-2-((6-(4-methylpiperazin-1-yl)pyridin-3-yl)amino)pyrido[4,3-d]pyrimidin-5(6H)-one]	> 20 µL/min/mg	–	100 to 1000 nM
CC(=O)Nc1cn(-c2c(Cl)cccc2Cl)c(=O)c2cnc(Nc3ccc(N4CCNCC4)cc3)nc12 [Example 28, N-(6-(2,6-Dichlorophenyl)-5-oxo-2-((4-(piperazin-1-yl)phenyl)amino)-5,6-dihydropyrido[4,3-d]pyrimidin-8-yl)acetamide]	–	> 200 nM	–

Second part, the compound after the results:

microsomal CLint at 1 μM [1]	IC50 [2]	IC50 [3]	Structure (SMILES)
> 20 µL/min/mg	< 10 nM	≤ 100 nM	O=c1c2cnc(Nc3ccc(N4CCNCC4)cc3)nc2c(-c2cccnc2)cn1-c1c(Cl)cccc1Cl [Example 23, 6-(2,6-Dichlorophenyl)-2-((4-(piperazin-1-yl)phenyl)amino)-8-(pyridin-3-yl)pyrido[4,3-d]pyrimidin-5(6H)-one]
> 20 µL/min/mg	–	≥ 1000 nM	CN1CCN(c2cccc(Nc3ncc4c(=O)n(-c5c(Cl)cccc5Cl)ccc4n3)c2)CC1 [Example 26, 6-(2,6-Dichlorophenyl)-2-((3-(4-methylpiperazin-1-yl)phenyl)amino)pyrido[4,3-d]pyrimidin-5(6H)-one]
≤ 20 µL/min/mg	< 10 nM	≤ 100 nM	O=c1c2cnc(Nc3ccc(N4CCNCC4)c(F)c3)nc2ccn1-c1c(Cl)cccc1Cl [Example 29, 6-(2,6-Dichlorophenyl)-2-((3-fluoro-4-(piperazin-1-yl)phenyl)amino)pyrido[4,3-d]pyrimidin-5(6H)-one]
> 20 µL/min/mg	–	≥ 1000 nM	NCc1cccc(Nc2ncc3c(=O)n(-c4c(Cl)cccc4Cl)ccc3n2)c1 [Example 25, 2-((3-(Aminomethyl)phenyl)amino)-6-(2,6-dichlorophenyl)pyrido[4,3-d]pyrimidin-5(6H)-one]
–	10 to 200 nM	100 to 1000 nM	CN1CCN(C(=O)c2ccc(Nc3ncc4c(=O)n(-c5c(Cl)cccc5Cl)ccc4n3)cc2)CC1 [Example 32, 6-(2,6-Dichlorophenyl)-2-((4-(4-methylpiperazine-1-carbonyl)phenyl)amino)pyrido[4,3-d]pyrimidin-5(6H)-one]
> 20 µL/min/mg	–	100 to 1000 nM	CCN(CC)CCOc1ccc(Nc2ncc3c(=O)n(-c4c(Cl)cccc4Cl)ccc3n2)cc1 [Example 4, 6-(2,6-Dichlorophenyl)-2-((4-(2-(diethylamino)ethoxy)phenyl)amino)pyrido[4,3-d]pyrimidin-5(6H)-one]
> 20 µL/min/mg	–	100 to 1000 nM	O=c1c2cnc(Nc3ccc(N4CCS(=O)(=O)CC4)cc3)nc2ccn1-c1c(Cl)cccc1Cl [Example 6, 6-(2,6-Dichlorophenyl)-2-((4-(1,1-dioxidothiomorpholino)phenyl)amino)pyrido[4,3-d]pyrimidin-5(6H)-one]
